Source: US7045315B2, “Methods for modulating expression of exogenous genes in mammalian systems” (The Salk Institute for Biological Studies, priority 1998, dated 2006)

What was measured:
Type in all cases: cell-based
VgEcR/RXR heterodimer = assay: Assay for inducer effectiveness on the ecdysone-inducible expression system (E/GRE4-ΔMTV-Luc reporter, CV-1 cells); conditions: for ability to activate the expression system in the further presence of an RXR agonist: diacylhydrazine plus LG1000268 vs alone, FIG. 4
Procedure: CV-1 cells were maintained in DMEM supplemented with 10% fetal bovine serum. Transfections were performed using the Dotap transfection reagent (Boehringer Mannheim). All candidate inducers were dissolved in either ethanol or DMSO. Muristerone A (MurA) was used as a positive control for activation. All transfections were performed in triplicate.
The E/GRE4-ΔMTV-Luc plasmid is routinely used as a reporter. […] A CMX-β-gal reporter plasmid was included in the transfection as a control for transfection efficiency. Approximately 10 hours after transfection, the media was removed and replaced with fresh media containing varying concentrations of the putative inducers. Cells were exposed to candidate activators for 20–48 hours, then assayed for luciferase and β-galactosidase activity employing standard techniques. Luciferase values were normalized using β-galactosidase activity levels.

[1] = target: T1, ecdysone receptor (EcR) with USP (Drosophila melanogaster, UniProt P34021); assay: Transient transfection reporter assay in CV-1 cells, ecdysone receptor with USP; conditions: 1 μM muristerone A vs ethanol, unmodified ecdysone receptor, FIG. 1A
T1 construct: expressed in transfected cells; host or cells: CV-1 cells
T1 sequence (P34021 1-878): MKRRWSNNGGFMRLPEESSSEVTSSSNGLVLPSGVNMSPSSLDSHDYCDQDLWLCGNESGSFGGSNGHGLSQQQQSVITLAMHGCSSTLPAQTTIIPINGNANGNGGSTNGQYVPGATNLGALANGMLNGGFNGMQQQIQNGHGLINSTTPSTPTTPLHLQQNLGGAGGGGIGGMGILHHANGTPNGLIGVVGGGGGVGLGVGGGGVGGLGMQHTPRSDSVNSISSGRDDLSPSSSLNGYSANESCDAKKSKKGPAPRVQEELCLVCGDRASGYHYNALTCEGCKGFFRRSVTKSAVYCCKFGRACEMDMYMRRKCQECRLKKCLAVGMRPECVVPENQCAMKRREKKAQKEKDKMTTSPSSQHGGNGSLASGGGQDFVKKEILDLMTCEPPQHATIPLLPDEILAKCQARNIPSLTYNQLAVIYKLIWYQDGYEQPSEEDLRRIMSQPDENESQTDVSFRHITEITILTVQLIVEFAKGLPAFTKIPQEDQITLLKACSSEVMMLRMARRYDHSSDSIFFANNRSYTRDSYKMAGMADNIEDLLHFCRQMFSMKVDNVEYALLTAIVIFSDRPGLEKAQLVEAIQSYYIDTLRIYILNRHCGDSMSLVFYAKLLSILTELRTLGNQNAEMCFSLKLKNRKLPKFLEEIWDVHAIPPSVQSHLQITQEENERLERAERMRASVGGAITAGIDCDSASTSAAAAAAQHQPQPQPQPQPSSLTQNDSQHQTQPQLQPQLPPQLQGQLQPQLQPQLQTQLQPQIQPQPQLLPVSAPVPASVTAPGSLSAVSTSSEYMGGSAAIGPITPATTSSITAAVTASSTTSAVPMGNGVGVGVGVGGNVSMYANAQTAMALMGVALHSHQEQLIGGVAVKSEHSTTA
T1 sequence (P20153 1-508 partner): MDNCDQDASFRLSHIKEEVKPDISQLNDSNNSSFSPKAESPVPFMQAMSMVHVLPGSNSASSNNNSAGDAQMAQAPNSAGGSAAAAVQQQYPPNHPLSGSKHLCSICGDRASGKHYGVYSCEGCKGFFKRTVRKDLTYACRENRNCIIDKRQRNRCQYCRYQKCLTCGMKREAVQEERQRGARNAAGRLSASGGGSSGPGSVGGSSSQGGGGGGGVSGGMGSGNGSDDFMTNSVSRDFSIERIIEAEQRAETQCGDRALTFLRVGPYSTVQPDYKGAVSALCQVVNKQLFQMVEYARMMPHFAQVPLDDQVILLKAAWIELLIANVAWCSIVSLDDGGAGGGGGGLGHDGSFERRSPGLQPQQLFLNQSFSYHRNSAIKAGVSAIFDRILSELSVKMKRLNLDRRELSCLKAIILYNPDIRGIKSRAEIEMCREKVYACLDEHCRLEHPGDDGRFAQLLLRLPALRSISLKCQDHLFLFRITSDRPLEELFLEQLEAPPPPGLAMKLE
Procedure: (§1) CV-1 cells were maintained in DMEM supplemented with 10% Fetal Bovine Serum. Transient transfections were performed using DOTAP transfection reagent (Boehringer-Mannheim). Transfections using β-galactosidase as the reporter were assayed either by Galactolight luminescent assay (Tropix, Bedford, Mass.) or by standard liquid ONPG assay (Sigma, St. Louis, Mo). The values were normalized by co-transfection of CMX-luciferase. Transfections using luciferase as the reporter were assayed by standard techniques using luciferin and ATP. These values were normalized by co-transfection of CMX-β-galactosidase. Hormone treated cells were treated with ethanol, 50 μM Juvenile Hormone III (Sigma), 1 μM muristerone A (Zambon, Bresso, IT), or 1 μM dexamethasone (Sigma) unless otherwise noted.
(§2) To maximize the sensitivity of the invention ecdysone inducible system, modifications of the ecdysone receptor were made. The N-terminal transactivation domain of the ecdysone receptor was replaced by the corresponding domain of the glucocorticoid receptor (GR), resulting in the modified ecdysone receptor GEcR (See FIG. 1D). CV-1 cells were transfected with the plasmid CMX-GEcR encoding the modified ecdysone receptor as discussed above. […]

[2] = tested on: GEcR (modified ecdysone receptor); assay: Transient transfection reporter assay in CV-1 cells, modified ecdysone receptor GEcR; conditions: 1 μM muristerone A vs ethanol; CV-1 cells transfected with CMX-GEcR; FIG. 1A
Procedure: as §1, §2

[3] = target: T2, ecdysone receptor heterodimer with retinoid X receptor (RXR) (Drosophila melanogaster, UniProt P34021); assay: Transient transfection reporter assay in CV-1 cells, USP replaced by RXR; conditions: 1 μM muristerone A, FIG. 1A
T2 construct: expressed in transfected cells; host or cells: CV-1 cells
T2 sequence (P34021 1-878): T1 sequence (P34021 1-878)
T2 sequence (P19793 1-462 partner): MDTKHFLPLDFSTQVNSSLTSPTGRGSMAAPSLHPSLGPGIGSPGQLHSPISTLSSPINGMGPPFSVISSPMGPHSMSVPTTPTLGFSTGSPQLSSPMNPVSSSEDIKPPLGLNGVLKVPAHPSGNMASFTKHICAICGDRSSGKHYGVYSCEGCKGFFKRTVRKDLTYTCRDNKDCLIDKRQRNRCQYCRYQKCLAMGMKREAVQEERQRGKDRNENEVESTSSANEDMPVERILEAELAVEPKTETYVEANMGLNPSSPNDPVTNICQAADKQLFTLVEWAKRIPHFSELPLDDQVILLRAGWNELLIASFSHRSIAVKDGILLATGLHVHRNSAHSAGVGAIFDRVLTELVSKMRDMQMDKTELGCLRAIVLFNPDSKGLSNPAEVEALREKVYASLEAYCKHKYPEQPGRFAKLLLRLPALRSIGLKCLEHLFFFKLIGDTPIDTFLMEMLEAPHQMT
Procedure: as §1, §2

[4] = tested on: RXR and VpEcR heterodimer; assay: Transient transfection reporter assay in CV-1 cells, RXR and VpEcR; conditions: 1 μM muristerone A, FIG. 1A
Procedure: as §1

| Compound | ability to activate the expression system in the further presence of an RXR agonist (VgEcR/RXR heterodimer) | muristerone responsiveness (fold induction of reporter) [1] [fold] | muristerone responsiveness (fold induction of reporter) [2] [fold] | fold induction of reporter [3] [fold] | fold induction of reporter [4] [fold] | activation of the ecdysone-inducible system, combination with RXR ligand (VgEcR/RXR heterodimer; MurA concentration varied, LG1000268 constant 100 nM, FIG. 3) | activation of the ecdysone-inducible system, ligand alone (VgEcR/RXR heterodimer; ligand alone over several concentrations, luciferase normalized to β-galactosidase, FIG. 3) |
| --- | --- | --- | --- | --- | --- | --- | --- |
| CCc1ccc(C(=O)NN(C(=O)c2cc(C)cc(C)c2)C(C)(C)C)cc1 [N′-(3,5-dimethylbenzoyl)-N-(4-ethylbenzoyl)-N′-(tert-butyl) hydrazine] | enhanced ability |  |  |  |  |  |  |
| CC(C)CC[C@@H](O)[C@](C)(O)[C@H]1CC[C@@]2(O)C3=CC(=O)[C@]4(O)C[C@@H](O)[C@@H](O)C[C@]4(C)[C@H]3[C@H](O)C[C@]12C [muristerone A] |  | 3 | 11 | 34 | 212 | dramatically enhances the activation | effective inducer |
| Cc1cc(C)cc(C(=O)N(NC(=O)c2ccc3c(c2C)OCCO3)C(C)(C)C)c1 [N′-(3,5-dimethylbenzoyl)-N-(2-methyl-3,4-(ethylenedioxy)-benzoyl)-N′-(tert-butyl) hydrazine] | enhanced ability |  |  |  |  |  |  |
